Measurements from article PMC10507154 (iScience, 2023).

How the values were obtained:
SquF (MaSquF) [1] = target: T1, SquF (MaSquF) (Marinobacterium aestuarii, UniProt A0A1A9EZ66); test: DNPH derivatization and LC-MS of 6-dehydroglucose; assay type: biochemical; conditions: 10 mM NADP^+, 100 mM glucose, 50 mM CAPSO pH 10.0, RT; reverse reaction
T1 sequence (A0A1A9EZ66 1-300): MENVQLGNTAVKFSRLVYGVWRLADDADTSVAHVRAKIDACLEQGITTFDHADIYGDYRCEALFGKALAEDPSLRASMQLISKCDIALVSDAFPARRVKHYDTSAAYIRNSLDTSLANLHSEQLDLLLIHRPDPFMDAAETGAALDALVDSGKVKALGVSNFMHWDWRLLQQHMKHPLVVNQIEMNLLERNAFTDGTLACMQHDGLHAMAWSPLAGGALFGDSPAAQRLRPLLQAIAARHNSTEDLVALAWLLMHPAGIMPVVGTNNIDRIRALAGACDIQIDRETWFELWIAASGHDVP

SquF (MaSquF) [2] = target: T1, SquF (MaSquF); test: LC-MS of glucose; assay type: biochemical; conditions: 0.5 mM NADPH, 6-dehydroglucose generated from SQ by SqoD, RT

SMILES: OC[C@H]1OC(O)[C@H](O)[C@@H](O)[C@@H]1O (stereo partly drawn) [D-glucose]
- DNPH derivatization and LC-MS of 6-dehydroglucose (SquF (MaSquF) [1]): SquF also catalyzed the reverse reaction, oxidation of glucose to 6-dehydoglucose

SMILES: NC(=O)C1=CN([C@@H]2O[C@H](COP(=O)(O)OP(=O)(O)OC[C@H]3O[C@@H](n4cnc5c(N)ncnc54)[C@H](OP(=O)(O)O)[C@@H]3O)[C@@H](O)[C@H]2O)C=CC1 [NADPH]
- LC-MS of glucose; NADPH consumption (SquF (MaSquF) [2]): Inclusion of SquF and NADPH in the assay followed by LC-MS analysis
